Activity calls are given as the source filed them. Rule as the data show it, for most assays here: actives have a measured Kd and inactives only a lower limit.
How the values were obtained:
Activin receptor type-2B = Activin receptor type-2B (Homo sapiens, UniProt Q13705)
Ephrin type-A receptor 5 = Ephrin type-A receptor 5 (Homo sapiens, UniProt P54756)
[1] = molecular target: T1, Receptor-type tyrosine-protein kinase FLT3 (Homo sapiens, UniProt P36888)
T1 sequence (P36888 whole entry): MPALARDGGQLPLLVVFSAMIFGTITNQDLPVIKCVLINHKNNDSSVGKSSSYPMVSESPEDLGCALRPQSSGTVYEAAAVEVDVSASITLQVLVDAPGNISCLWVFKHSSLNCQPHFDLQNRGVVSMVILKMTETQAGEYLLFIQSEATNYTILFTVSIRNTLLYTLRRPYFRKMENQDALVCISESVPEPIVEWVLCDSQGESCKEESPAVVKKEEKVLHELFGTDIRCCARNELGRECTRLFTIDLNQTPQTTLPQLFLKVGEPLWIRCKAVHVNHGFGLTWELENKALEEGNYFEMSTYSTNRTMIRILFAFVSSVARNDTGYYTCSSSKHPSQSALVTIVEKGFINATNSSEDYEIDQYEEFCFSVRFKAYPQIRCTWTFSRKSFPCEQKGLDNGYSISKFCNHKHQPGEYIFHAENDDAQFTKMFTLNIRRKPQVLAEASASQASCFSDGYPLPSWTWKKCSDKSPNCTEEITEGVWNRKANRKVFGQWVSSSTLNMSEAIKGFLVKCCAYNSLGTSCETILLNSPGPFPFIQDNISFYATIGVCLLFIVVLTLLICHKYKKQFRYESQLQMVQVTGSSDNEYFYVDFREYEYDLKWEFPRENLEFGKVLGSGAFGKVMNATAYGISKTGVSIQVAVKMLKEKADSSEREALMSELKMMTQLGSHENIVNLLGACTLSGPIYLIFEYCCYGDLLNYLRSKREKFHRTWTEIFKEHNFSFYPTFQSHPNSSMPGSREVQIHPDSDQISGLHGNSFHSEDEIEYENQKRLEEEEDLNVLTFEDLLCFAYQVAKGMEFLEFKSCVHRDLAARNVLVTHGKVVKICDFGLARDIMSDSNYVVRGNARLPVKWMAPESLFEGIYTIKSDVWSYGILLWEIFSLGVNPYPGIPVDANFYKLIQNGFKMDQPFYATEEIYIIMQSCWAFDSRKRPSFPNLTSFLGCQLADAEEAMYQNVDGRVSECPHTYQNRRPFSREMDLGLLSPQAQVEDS

[2] = molecular target: T2, Interleukin-1 receptor-associated kinase 3 (Homo sapiens, UniProt Q9Y616)
T2 sequence (Q9Y616 whole entry): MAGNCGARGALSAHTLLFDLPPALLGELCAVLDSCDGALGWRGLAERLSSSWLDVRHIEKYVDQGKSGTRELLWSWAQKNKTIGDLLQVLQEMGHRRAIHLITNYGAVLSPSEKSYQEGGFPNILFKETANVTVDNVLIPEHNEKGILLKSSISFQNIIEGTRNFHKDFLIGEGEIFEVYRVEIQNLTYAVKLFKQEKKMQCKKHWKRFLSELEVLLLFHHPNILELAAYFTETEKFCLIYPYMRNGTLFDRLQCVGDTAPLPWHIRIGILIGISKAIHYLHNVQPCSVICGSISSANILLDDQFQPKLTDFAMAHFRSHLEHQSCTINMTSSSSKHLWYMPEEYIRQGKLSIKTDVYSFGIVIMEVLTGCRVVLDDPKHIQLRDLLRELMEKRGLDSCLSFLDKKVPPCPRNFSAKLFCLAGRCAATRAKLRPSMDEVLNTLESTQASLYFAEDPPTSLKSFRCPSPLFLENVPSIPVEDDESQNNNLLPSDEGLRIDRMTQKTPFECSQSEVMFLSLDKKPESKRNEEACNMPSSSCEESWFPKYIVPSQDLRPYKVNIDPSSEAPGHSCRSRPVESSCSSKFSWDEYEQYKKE

[3] = molecular target: Mitogen-activated protein kinase 9 (Homo sapiens, UniProt P45984)
Mitogen-activated protein kinase 9, sequence (P45984 whole entry): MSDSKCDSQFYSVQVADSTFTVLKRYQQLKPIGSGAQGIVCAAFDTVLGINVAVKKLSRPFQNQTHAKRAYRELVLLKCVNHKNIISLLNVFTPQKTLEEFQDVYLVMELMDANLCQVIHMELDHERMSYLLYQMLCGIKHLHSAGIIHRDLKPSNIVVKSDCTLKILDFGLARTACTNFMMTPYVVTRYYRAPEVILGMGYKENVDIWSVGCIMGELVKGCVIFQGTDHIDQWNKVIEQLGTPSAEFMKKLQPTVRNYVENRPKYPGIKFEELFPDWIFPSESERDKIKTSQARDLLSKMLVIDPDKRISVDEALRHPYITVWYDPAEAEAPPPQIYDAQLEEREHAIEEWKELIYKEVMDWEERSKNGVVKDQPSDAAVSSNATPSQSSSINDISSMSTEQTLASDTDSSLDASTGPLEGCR

[4] = molecular target: cAMP-dependent protein kinase type II-alpha regulatory subunit (Homo sapiens, UniProt P13861)
cAMP-dependent protein kinase type II-alpha regulatory subunit, sequence (P13861 whole entry): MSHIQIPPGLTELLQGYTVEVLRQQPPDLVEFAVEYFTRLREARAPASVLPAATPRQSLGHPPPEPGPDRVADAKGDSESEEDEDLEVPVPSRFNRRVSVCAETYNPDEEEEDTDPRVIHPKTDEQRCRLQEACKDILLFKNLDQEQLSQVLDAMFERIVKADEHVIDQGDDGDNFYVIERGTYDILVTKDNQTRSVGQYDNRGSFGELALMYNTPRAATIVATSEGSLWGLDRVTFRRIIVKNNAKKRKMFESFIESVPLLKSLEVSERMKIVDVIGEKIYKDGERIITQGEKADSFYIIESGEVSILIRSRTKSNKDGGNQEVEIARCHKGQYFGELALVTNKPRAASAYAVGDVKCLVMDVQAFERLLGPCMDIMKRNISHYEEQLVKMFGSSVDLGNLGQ

[5] = molecular target: 26S proteasome regulatory subunit 6B (Homo sapiens, UniProt P43686)
26S proteasome regulatory subunit 6B, sequence (P43686 whole entry): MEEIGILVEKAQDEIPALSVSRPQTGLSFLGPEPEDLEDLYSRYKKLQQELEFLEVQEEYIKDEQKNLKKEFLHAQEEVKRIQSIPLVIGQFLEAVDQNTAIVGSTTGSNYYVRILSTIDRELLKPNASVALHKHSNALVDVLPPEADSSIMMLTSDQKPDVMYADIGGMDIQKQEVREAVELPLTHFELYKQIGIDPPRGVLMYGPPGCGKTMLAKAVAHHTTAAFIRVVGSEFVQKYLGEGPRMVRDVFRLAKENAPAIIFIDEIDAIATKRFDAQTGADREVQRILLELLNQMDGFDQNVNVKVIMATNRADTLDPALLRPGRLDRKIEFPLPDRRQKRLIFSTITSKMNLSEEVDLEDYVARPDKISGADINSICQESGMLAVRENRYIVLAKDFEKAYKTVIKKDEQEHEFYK

[6] = molecular target: Ribosomal protein S6 kinase beta-1 (Homo sapiens, UniProt P23443)
Ribosomal protein S6 kinase beta-1, sequence (P23443 whole entry): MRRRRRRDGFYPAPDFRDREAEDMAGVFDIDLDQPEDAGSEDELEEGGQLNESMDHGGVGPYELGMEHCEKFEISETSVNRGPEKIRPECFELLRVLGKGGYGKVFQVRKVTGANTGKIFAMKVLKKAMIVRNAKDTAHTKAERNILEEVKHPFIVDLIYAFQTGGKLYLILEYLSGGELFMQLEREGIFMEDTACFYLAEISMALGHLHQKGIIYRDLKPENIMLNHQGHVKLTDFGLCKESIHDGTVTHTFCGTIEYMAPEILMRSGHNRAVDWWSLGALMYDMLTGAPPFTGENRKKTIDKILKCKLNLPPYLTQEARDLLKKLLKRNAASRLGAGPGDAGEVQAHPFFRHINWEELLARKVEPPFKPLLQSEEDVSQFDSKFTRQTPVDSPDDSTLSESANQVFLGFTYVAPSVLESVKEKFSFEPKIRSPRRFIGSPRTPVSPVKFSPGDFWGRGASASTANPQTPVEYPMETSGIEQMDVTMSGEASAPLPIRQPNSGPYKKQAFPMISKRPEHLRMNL

[7] = molecular target: Tyrosine-protein kinase SYK (Homo sapiens, UniProt P43405)
[8] = molecular target: T3, Serine/threonine-protein kinase TAO1 (Homo sapiens, UniProt Q7L7X3)
T3 sequence (Q7L7X3 whole entry): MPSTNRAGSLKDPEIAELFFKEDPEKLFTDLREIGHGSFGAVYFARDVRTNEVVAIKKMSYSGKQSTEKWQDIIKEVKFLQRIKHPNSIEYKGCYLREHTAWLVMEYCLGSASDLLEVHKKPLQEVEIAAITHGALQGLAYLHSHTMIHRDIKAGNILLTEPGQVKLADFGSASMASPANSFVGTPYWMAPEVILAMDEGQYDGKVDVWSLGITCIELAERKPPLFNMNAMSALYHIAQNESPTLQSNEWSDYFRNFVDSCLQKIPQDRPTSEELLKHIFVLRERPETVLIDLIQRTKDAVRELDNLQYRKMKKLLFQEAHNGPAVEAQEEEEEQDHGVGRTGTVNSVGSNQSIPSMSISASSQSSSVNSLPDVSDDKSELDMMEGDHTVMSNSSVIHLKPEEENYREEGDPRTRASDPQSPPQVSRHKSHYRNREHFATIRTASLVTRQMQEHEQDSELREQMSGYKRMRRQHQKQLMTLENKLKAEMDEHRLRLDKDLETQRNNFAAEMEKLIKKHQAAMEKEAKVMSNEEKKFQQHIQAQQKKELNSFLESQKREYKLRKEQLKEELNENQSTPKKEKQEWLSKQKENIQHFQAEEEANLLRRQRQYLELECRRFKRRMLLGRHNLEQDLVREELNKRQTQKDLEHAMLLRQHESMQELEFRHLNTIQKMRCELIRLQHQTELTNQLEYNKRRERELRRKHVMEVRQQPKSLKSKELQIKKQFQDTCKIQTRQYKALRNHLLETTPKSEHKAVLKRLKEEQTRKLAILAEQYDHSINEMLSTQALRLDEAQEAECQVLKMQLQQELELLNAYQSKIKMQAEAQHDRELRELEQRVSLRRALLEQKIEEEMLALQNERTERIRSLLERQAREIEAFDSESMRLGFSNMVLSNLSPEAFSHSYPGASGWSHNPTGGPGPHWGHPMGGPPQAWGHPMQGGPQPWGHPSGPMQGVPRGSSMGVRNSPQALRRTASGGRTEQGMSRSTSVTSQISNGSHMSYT

[9] = molecular target: Inosine-5'-monophosphate dehydrogenase 2 (Homo sapiens, UniProt P12268)
Also: in the data inactive means no Kd found up to 30 µM.

Activin receptor type-2B, sequence (Q13705 whole entry): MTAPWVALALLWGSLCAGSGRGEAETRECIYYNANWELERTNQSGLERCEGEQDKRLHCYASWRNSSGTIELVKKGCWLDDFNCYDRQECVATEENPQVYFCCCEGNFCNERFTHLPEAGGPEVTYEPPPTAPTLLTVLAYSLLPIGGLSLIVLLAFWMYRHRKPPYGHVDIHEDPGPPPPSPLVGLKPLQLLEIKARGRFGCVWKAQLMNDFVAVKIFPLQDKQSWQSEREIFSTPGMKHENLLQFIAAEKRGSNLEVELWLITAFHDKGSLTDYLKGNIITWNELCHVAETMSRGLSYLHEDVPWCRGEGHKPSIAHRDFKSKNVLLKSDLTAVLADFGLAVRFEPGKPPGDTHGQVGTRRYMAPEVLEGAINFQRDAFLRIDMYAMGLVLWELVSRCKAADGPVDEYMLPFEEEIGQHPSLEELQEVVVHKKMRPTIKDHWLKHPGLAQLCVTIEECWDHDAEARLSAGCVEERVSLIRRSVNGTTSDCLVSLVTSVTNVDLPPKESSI
Ephrin type-A receptor 5, sequence (P54756 whole entry): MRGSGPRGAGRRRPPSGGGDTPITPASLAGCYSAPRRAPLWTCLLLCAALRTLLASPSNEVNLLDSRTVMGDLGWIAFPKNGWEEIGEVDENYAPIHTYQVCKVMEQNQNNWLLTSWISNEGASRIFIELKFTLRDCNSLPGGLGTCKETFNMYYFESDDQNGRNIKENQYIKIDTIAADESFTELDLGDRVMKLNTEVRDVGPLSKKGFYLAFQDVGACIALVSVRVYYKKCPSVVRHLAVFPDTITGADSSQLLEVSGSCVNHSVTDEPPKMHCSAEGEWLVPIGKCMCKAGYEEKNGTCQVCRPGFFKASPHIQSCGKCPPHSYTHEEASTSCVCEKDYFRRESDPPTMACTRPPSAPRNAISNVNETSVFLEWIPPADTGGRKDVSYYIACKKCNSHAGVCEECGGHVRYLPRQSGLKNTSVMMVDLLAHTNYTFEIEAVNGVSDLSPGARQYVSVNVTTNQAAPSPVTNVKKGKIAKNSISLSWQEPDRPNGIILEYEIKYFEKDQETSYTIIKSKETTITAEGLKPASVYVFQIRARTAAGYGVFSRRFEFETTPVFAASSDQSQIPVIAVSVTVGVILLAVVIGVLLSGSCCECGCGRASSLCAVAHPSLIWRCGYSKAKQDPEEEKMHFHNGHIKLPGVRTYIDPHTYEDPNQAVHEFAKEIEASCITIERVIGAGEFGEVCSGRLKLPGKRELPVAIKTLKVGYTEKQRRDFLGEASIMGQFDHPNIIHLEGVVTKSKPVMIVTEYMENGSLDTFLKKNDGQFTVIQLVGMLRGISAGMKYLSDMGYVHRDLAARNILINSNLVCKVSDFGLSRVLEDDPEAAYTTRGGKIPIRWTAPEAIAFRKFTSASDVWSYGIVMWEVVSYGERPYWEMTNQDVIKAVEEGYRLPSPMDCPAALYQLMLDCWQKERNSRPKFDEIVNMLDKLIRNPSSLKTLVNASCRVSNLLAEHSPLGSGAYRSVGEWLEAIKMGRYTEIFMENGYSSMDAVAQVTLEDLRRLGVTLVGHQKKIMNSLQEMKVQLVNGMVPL

| SMILES | Kd (Activin receptor type-2B) | Kd (Ephrin type-A receptor 5) | Kd [1] | Kd [2] | Kd [3] | Kd [4] | Kd [5] | Kd [6] | Kd [7] | Kd [8] | Kd [9] |
| --- | --- | --- | --- | --- | --- | --- | --- | --- | --- | --- | --- |
| Cn1cc(-c2ccc3nnc(C(F)(F)c4ccc5ncccc5c4)n3n2)cn1 [JNJ-38877605] | > 30 µM (inactive) | > 30 µM (inactive) | > 30 µM (inactive) | > 30 µM (inactive) | > 30 µM (inactive) | > 30 µM (inactive) | > 30 µM (inactive) | > 30 µM (inactive) | > 30 µM (inactive) | > 30 µM (inactive) | – |
| CN(C)C(=O)c1cc2cnc(Nc3ccc(N4CCNCC4)cn3)nc2n1C1CCCC1 [RIBOCICLIB] | > 30 µM (inactive) | > 30 µM (inactive) | > 30 µM (inactive) | > 30 µM (inactive) | > 30 µM (inactive) | – | > 30 µM (inactive) | > 30 µM (inactive) | > 30 µM (inactive) | > 30 µM (inactive) | – |
| C[C@@H](Nc1cc(F)cc(F)c1)c1cc(C(=O)N(C)C)cc2c(=O)cc(N3CCOCC3)oc12 [AZD-8186] | > 30 µM (inactive) | > 30 µM (inactive) | > 30 µM (inactive) | > 30 µM (inactive) | > 30 µM (inactive) | – | > 30 µM (inactive) | > 30 µM (inactive) | > 30 µM (inactive) | > 30 µM (inactive) | – |
| COC(=O)[C@@]1(O)C[C@H]2O[C@]1(C)n1c3ccccc3c3c4c(c5c6ccccc6n2c5c31)C(=O)NC4 [K-252A] | > 30 µM (inactive) | > 30 µM (inactive) | 0.227 µM (active) | 0.254 µM (active) | 0.986 µM (active) | > 30 µM (inactive) | > 30 µM (inactive) | > 30 µM (inactive) | – | 18.8 µM (active) | > 30 µM (inactive) |
| CN1CCC(COc2cnc(-c3cccc(Cn4nc(-c5cccc(C#N)c5)ccc4=O)c3)nc2)CC1 [TEPOTINIB] | > 30 µM (inactive) | > 30 µM (inactive) | > 30 µM (inactive) | > 30 µM (inactive) | > 30 µM (inactive) | > 30 µM (inactive) | > 30 µM (inactive) | > 30 µM (inactive) | – | > 30 µM (inactive) | > 30 µM (inactive) |
| COc1cc(N2CCC(N3CCN(C)CC3)CC2)ccc1Nc1ncnc(Nc2ccccc2S(=O)(=O)C(C)C)n1 [ASP-3026] | > 30 µM (inactive) | > 30 µM (inactive) | 0.627 µM (active) | > 30 µM (inactive) | > 30 µM (inactive) | > 30 µM (inactive) | > 30 µM (inactive) | > 30 µM (inactive) | > 30 µM (inactive) | > 30 µM (inactive) | – |
| Cc1cc2c(F)c(Oc3ncnn4cc(OC[C@@H](C)OC(=O)[C@H](C)N)c(C)c34)ccc2[nH]1 [BRIVANIB ALANINATE] | > 30 µM (inactive) | > 30 µM (inactive) | > 30 µM (inactive) | > 30 µM (inactive) | > 30 µM (inactive) | > 30 µM (inactive) | > 30 µM (inactive) | > 30 µM (inactive) | > 30 µM (inactive) | > 30 µM (inactive) | – |
| C=CC(=O)N1CCC(Oc2cc3c(Nc4ccc(Cl)c(Cl)c4F)ncnc3cc2OC)CC1 [POZIOTINIB] | > 30 µM (inactive) | > 30 µM (inactive) | > 30 µM (inactive) | > 30 µM (inactive) | > 30 µM (inactive) | – | > 30 µM (inactive) | > 30 µM (inactive) | > 30 µM (inactive) | > 30 µM (inactive) | – |
| Cc1ccc(-n2nc(C(C)(C)C)cc2NC(=O)NCc2cc(F)ccc2Oc2ccc3c(cnn3CCO)c2)cc1 [PEXMETINIB] | > 30 µM (inactive) | > 30 µM (inactive) | > 30 µM (inactive) | > 30 µM (inactive) | 0.312 µM (active) | – | > 30 µM (inactive) | > 30 µM (inactive) | > 30 µM (inactive) | > 30 µM (inactive) | > 30 µM (inactive) |
| O=C1NC(=O)/C(=C/c2ccc3nccc(-c4ccncc4)c3c2)S1 [GSK-1059615] | > 30 µM (inactive) | > 30 µM (inactive) | > 30 µM (inactive) | 8.67 µM (active) | > 30 µM (inactive) | > 30 µM (inactive) | > 30 µM (inactive) | > 30 µM (inactive) | > 30 µM (inactive) | 0.002 µM (active) | – |
| Cc1ccc(S(=O)(=O)Nc2nc3ccccc3nc2Nc2ccc3nsnc3c2)cc1 | – | > 30 µM (inactive) | > 30 µM (inactive) | > 30 µM (inactive) | > 30 µM (inactive) | – | > 30 µM (inactive) | > 30 µM (inactive) | > 30 µM (inactive) | > 30 µM (inactive) | > 30 µM (inactive) |
| Cc1ccc(NC(=O)c2ccc(CN3CC[C@H](N(C)C)C3)c(C(F)(F)F)c2)cc1Nc1nccc(-c2cncnc2)n1 [BAFETINIB] | > 30 µM (inactive) | 0.345 µM | > 30 µM (inactive) | > 30 µM (inactive) | > 30 µM (inactive) | > 30 µM (inactive) | > 30 µM (inactive) | > 30 µM (inactive) | > 30 µM (inactive) | > 30 µM (inactive) | – |
| C[C@@H]1CN(Cc2ccc(F)cc2)[C@@H](C)CN1C(=O)c1cc2c(C(=O)C(=O)N(C)C)cn(C)c2cc1Cl [TALMAPIMOD] | > 30 µM (inactive) | > 30 µM (inactive) | > 30 µM (inactive) | > 30 µM (inactive) | > 30 µM (inactive) | > 30 µM (inactive) | > 30 µM (inactive) | > 30 µM (inactive) | > 30 µM (inactive) | > 30 µM (inactive) | – |
